Reference: article PMC12436592 (Nature Communications, 2025)
Entries after “also recorded” stand apart in the source; their conditions may differ.

Legend:
[1] = molecular target: T1, hP2X1R (Homo sapiens, UniProt P51575); assay: Calcium influx assay, 1321N1 astrocytoma cells, ATP EC80; assay type: cell-based; conditions: 1321-N1, read-out: % inhibition ± SD at 10 μM, hP2X1R, 10 μM antagonist, ATP 100 nM
T1 sequence (P51575 51-338 limits assumed): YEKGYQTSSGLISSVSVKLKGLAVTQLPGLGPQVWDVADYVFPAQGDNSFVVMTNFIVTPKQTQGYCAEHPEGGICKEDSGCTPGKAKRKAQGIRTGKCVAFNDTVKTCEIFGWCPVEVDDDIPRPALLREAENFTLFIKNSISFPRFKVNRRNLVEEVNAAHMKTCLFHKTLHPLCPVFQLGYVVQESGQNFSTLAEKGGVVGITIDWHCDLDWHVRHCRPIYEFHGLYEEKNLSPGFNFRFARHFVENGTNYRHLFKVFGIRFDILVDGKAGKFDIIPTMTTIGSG
Description: . For 1321N1 astrocytoma cells stably expressing the human, rat, or mouse P2X7Rs, or hP2X2Rs or hP2X4Rs, the fluorescent Ca^2+-chelating dye Fluo-4 acetoxymethyl ester (Fluo-4 AM, Thermo Fisher Scientific, Dreieich, Germany) was used. For 1321N1 astrocytoma cell lines recombinantly expressing the hP2X1Rs or hP2X3Rs, the FLIPR® Calcium 5 Assay Kit (Molecular Devices, San José, CA, USA) was employed. Human, rat, and mouse P2X7Rs as well as hP2X1Rs, hP2X2Rs, hP2X3Rs, and hP2X4Rs were recombinantly expressed in 1321N1 astrocytoma cells using a retroviral expression system[72]–[74].
On the first day, 45,000 cells per well (30,000 cells for the human P2X3 receptor-expressing cells) were seeded into a 96-well polystyrene microplate with a black, flat bottom in a final volume of 200 µL. […] After 30 min of incubation with antagonist, the plates were measured using a fluorescence imaging plate reader NOVOstar (BMG Labtech GmbH, Offenburg, Germany) at an excitation wavelength of 485 nm and an emission wavelength of 520 nm, for 30 s at 0.4 s intervals. Calcium influx measurements were then initiated by automatic addition of 20 µL of agonist solution by the plate reader’s pipetting device. Data were analyzed using Microsoft Excel and GraphPad Prism (Version 8.0, San Diego, CA, USA). EC80 and IC50 values were calculated using nonlinear regression with a sigmoidal dose-response equation.

[2] = test system: T2, hP2X4R; assay: TEVC current traces with co-applied antagonist in Xenopus oocytes; assay type: cell-based, human; conditions: 300 µM ATP, 100 nM antagonist
T2 construct: expressed in transfected cells; host or cells: Xenopus laevis oocytes (cRNA, pNKS2 vector)

O=C(NNc1ccccc1Cl)C12CC3CC(CC(C3)C1)C2 [UB-ALT-P30, reference compound]
inhibition at 10 µM [1]: 36 ± 8%

CC12CC3CC1(C)C1(C)CC3(C(=O)NNc3ccccc3Cl)CC21C [UB-MBX-46]
antagonism of the hP2X4R [2]: virtually no antagonism; also recorded: negligible
